Source: the NIST ThermoML archive (doi:10.1021/je400839x)

Experiment: xn = mol fraction of the nth substance listed
Settings: 101 kPa, Liquid; for speed of sound: Pulse-echo method; for mass density: Vibrating tube method; for viscosity: Concentric cylinders viscometry

CC(CC(C)(C)C)CC(C)(C)C [2,2,4,6,6-pentamethylheptane] + CCCCCCCCCCCCCCCC
Settings | mass density [kg/m3] | speed of sound [m/s] | viscosity [mPa·s]
323.15 K, x1 = 0.1261 | 749.9 | – | –
323.15 K, x1 = 0.2449 | 747.1 | – | –
323.15 K, x1 = 0.4087 | 742.9 | – | –
323.15 K, x1 = 0.562 | 738.6 | 1171.2 | –
323.15 K, x1 = 0.7036 | 734.2 | 1147.2 | –
323.15 K, x1 = 0.8368 | 729.6 | 1122.9 | –
323.15 K, x1 = 1 | 723.5 | 1089.3 | –
333.15 K, x1 = 0.1261 | 742.9 | – | 1.42
333.15 K, x1 = 0.2449 | 740.1 | – | 1.32
333.15 K, x1 = 0.4087 | 735.8 | – | 1.18
333.15 K, x1 = 0.562 | 731.5 | – | 1.06
333.15 K, x1 = 0.7036 | 727 | – | 0.944
333.15 K, x1 = 0.8368 | 722.3 | – | 0.843
333.15 K, x1 = 1 | 716.1 | – | 0.726
343.15 K, x1 = 0.1261 | 735.9 | – | 1.22
343.15 K, x1 = 0.2449 | 733 | – | 1.14
343.15 K, x1 = 0.4087 | 728.7 | – | 1.02
343.15 K, x1 = 0.562 | 724.4 | – | 0.922
343.15 K, x1 = 0.7036 | 719.7 | – | 0.827
343.15 K, x1 = 0.8368 | 714.9 | – | 0.742
343.15 K, x1 = 1 | 708.6 | – | 0.643
353.15 K, x1 = 0.1261 | 728.8 | – | 1.06
353.15 K, x1 = 0.2449 | 725.9 | – | 0.988
353.15 K, x1 = 0.4087 | 721.5 | – | 0.894
353.15 K, x1 = 0.562 | 717.1 | – | 0.81
353.15 K, x1 = 0.7036 | 712.3 | – | 0.73
353.15 K, x1 = 0.8368 | 707.5 | – | 0.658
353.15 K, x1 = 1 | 700.9 | – | 0.573
363.15 K, x1 = 0.1261 | 721.7 | – | 0.928
363.15 K, x1 = 0.2449 | 718.8 | – | 0.87
363.15 K, x1 = 0.4087 | 714.4 | – | 0.791
363.15 K, x1 = 0.562 | 709.8 | – | 0.719
363.15 K, x1 = 0.7036 | 704.9 | – | 0.651
363.15 K, x1 = 0.8368 | 700 | – | 0.589
363.15 K, x1 = 1 | 693.2 | – | 0.515
373.15 K, x1 = 0.1261 | 714.5 | – | 0.823
373.15 K, x1 = 0.2449 | 711.7 | – | 0.773
373.15 K, x1 = 0.4087 | 707.1 | – | 0.706
373.15 K, x1 = 0.562 | 702.5 | – | 0.644
373.15 K, x1 = 0.7036 | 697.5 | – | 0.585
373.15 K, x1 = 0.8368 | 692.3 | – | 0.531
373.15 K, x1 = 1 | 685.5 | – | 0.467
